Assay results from paper PMC10931745 (International Journal of Molecular Sciences, 2024).

Assays:
[1] = system: TNF-α expression in MDA-MB-231 cells; assay: Immunofluorescence, TNF-α expression; format: cell-based, human; settings: 15 µM, 24 h
Experimental: (§1) After a PBS wash, cells were fixed using cold methanol (15 min at −20 °C) and incubated overnight at 4 °C with the primary antibodies raised against NF-κB, iNOS, TNF-α, and COX-1 and 2 (Santa Cruz Biotechnology Inc., Santa Cruz, CA, USA) diluted in BSA 2%, as previously described. […] DAPI (Sigma Aldrich, Milan, Italy) 0.2 µg/mL was added for 10 min for nuclei counterstaining. A fluorescence microscope (Leica DM 6000) was used for visualizing images, and LAS-X software 3.5.7.23225 was used for acquisition and processing.

[2] = system: NO production in LPS-stimulated RAW 264.7 macrophages; assay: Griess assay, NO production; format: cell-based, murine; settings: 25 µM, LPS 1 µg/mL, 24 h
Experimental: The Griess assay was performed using RAW 264.7 murine macrophages to study the anti-inflammatory activity in terms of NO production. RAW 264.7 cells were plated in the 48 multi-wells and, after 24 h, treated with the tested molecules (25 µM) and the lipopolysaccharide (LPS, Sigma Aldrich, Milan, Italy) at a final concentration of 1 µg/mL. LPS is able to induce inflammation by stimulating NO production in immune system cells such as macrophages. After 24 h, the cell medium Griess reagent (Sigma Aldrich, Milan, Italy) was mixed in with a ratio of 1:1. The Griess reagent allowed for the quantification of NO released by macrophages in the treatment medium. The mixture was left for 30 min under agitation and, subsequently, the absorbance at 540 nm was measured using a multiplate reader. The obtained absorbance allowed us to calculate the NO production % compared to the absorbance obtained for the positive control, in which the cells were treated with LPS.

[3] = system: Escherichia coli (ATCC 25922); assay: MIC/MBC broth dilution; format: cell-based
Experimental: (§2) The bacterial strains used for MIC and MBC value determinations expressed as µg/mL by the broth dilution method, according to CLSI guidelines, were the following:
(§3) -4 Gram-negative: Escherichia coli (ATCC® 25922^TM) and Klebsiella pneumoniae (ATCC® 13883^TM);
(§4) Increasing concentrations of the complexes (50, 70, 100, 150, and 200 µg/mL) were incubated with bacteria plated in 96-well microplates at 37 °C overnight as already reported, and then bacterial growth was checked at a wavelength of 600 nm using a Multiskan spectrophotometer (model Multiskan Ex Microplate; Thermo Scientific, Nyon, Switzerland). MIC or MBC values were obtained by comparing cell density with a positive control (bacterial cells grown in LB medium were added with only the vehicle, DMSO). The results were representative of three independent experiments performed in triplicate. Ampicillin, Gentamicin, and Cephalosporin (Sigma Aldrich A9393) were used as the control for strain sensitivity.

[4] = system: Klebsiella pneumoniae (ATCC 13883); assay: MIC/MBC broth dilution; format: cell-based
Experimental: as §2, §3, §4

[5] = system: NF-κB localization in MDA-MB-231 cells; assay: Immunofluorescence, NF-κB localization; format: cell-based, human; settings: 15 µM
Experimental: as §1

[6] = system: Staphylococcus aureus (ATCC 23235); assay: MIC/MBC broth dilution; format: cell-based
Experimental: as §2
(§5) -3 Gram-positive: Enterococcus faecalis (ATCC® 19433^TM), Staphylococcus aureus (ATCC® 23235^TM), and Staphylococcus epidermidis (ATCC® 14990™).
as §4

[7] = system: Enterococcus faecalis (ATCC 19433); assay: MIC/MBC broth dilution; format: cell-based
Experimental: as §2, §5, §4

[8] = system: Staphylococcus epidermidis (ATCC 14990); assay: MIC/MBC broth dilution; format: cell-based
Experimental: as §2, §5, §4

MDA-MB-231 cells = assay: TUNEL assay (DNA damage/apoptosis); format: cell-based, human; settings: 30 µM, 24 h
Experimental: The terminal deoxynucleotidyl transferase dUTP nick end labeling (TUNEL) assay was performed to detect cell apoptosis, following the manufacturer’s protocols (CF™488A TUNEL Assay Apoptosis Detection Kit, Biotium, Hayward, CA, USA), with some modifications, as previously indicated. Nuclei staining was performed using DAPI solution (0.2 µg/mL, Sigma Aldrich, Milan, Italy). A fluorescence microscope (Leica DM 6000) was used for the cell examinations at 20× magnification. LAS-X software 3.5.7.23225 was employed for the acquisition and processing of the images, which were representative of three independent experiments.

MDA-MB-231 = assay: MTT cell viability assay; format: cell-based, human; settings: 72 h
Experimental: (§6) The cell lines used were purchased from American Type Culture Collection (ATCC, Manassas, VA, USA). Human breast cancer cells MCF-7 and MDA-MB-231, human mammary epithelial cell line MCF-10A, and mouse BALB/3T3 embryonic fibroblasts were cultured as already described by some of us. The murine macrophage cell line RAW 264.7 was maintained in Dulbecco’s Modified Eagle’s Medium (DMEM) high glucose (4.5 g/L) supplemented with 10% Fetal Bovine Serum (FBS), 1% L-glutamine, and 100 units/mL of penicillin/streptomycin. The cell cultures were maintained at the temperature of 37 °C in a humidified atmosphere containing 5% CO2.
(§7) The 3-(4,5-dimethylthiazol-2-yl)-2,5-diphenyl-2H-tetrazolium bromide (MTT) assay (Sigma Aldrich (St. Louis, MO, USA)) was carried out to study the in vitro anticancer activities of the complexes, following the previously reported protocol. The cells were incubated for 72 h with different concentrations of the tested compounds (0.1, 1, 10, 25, 50, 100, and 500 µM) and the IC50 values were calculated from the percent (%) of control using the software GraphPad Prism 9 (GraphPad Software, La Jolla, CA, USA).

MCF-7 = assay: MTT cell viability assay; format: cell-based, human; settings: 72 h
Experimental: as §6, §7

[9] = ABTS radical scavenging assay; format: biochemical
Experimental: The radical scavenging properties of the complexes on a 2,20-azino-bis(3-ethylbenzothiazoline-6-sulfonate) radical cation (ABTS^+) were evaluated as previously described.
All the complexes were used at different concentrations (5, 10, 25, 50, and 100 µg/mL) and the ABTS radical scavenging activity, measured at 730 nm using a microplate reader, was expressed as inhibition percentages (%IABTS) compared tothe control, according to the following expression:(3) IABTS (%)=ABSCTRL−ABSsample/ABSCTRL∗100 where ABSCTRL and ABSsample are the absorbance at 730 nm in the control and in the presence of samples, respectively.
IC50 values were calculated from the %IABTS using GraphPad Prism 9 software (GraphPad Inc., San Diego, CA, USA). Trolox was employed as a positive control, while caffeine and theophylline were reference compounds.

IC50 (MDA-MB-231) [µM]	IC50 (MCF-7) [µM]	IC50 [9] [µM]	SMILES	Reduction in TNF-α expression (fluorescence quantification) [1]	Reduction in NO production [2]	M.B.C. E. coli [3] [µg/mL]	M.I.C. E. coli [3] [µg/mL]	M.B.C. K. pneumoniae [4] [µg/mL]	M.I.C. K. pneumoniae [4] [µg/mL]	NF-κB intracellular localization [5]	M.B.C. S. aureus [6] [µg/mL]	M.I.C. S. aureus [6] [µg/mL]	M.B.C. E. faecalis [7] [µg/mL]	M.I.C. E. faecalis [7] [µg/mL]	M.B.C. S. epidermidis [8] [µg/mL]	M.I.C. S. epidermidis [8] [µg/mL]	DNA damage (green nuclear fluorescence, TUNEL) (MDA-MB-231 cells)
14.7 ± 1.1	73.8 ± 1.1	161 ± 1	Cn1c(=O)c2c(n(C)[c]([Au-][I])[n+]2CC(O)c2ccccc2)n(C)c1=O (racemic) [AuL1, 1,3,7-Trimethylxanthin-9-[(2-hydroxy-2-phenyl)ethyl-8-ylidene]Au(I) Iodide]	about 60%	~6.23%	> 200	150	> 200	150	prevalently located in the cytoplasm	> 200	150	> 200	150	> 150	125	formation of a green nuclear fluorescence
19.4 ± 1	28.7 ± 1	145.4 ± 1.1	CC(=O)[O][Ag-][c]1n(C)c2c(c(=O)n(C)c(=O)n2C)[n+]1C1CCCCC1O (stereo not shown) [AgL2OAc, 1,3,7-Trimethylxanthin-9-[cyclohexan-2-ol-8-ylidene]Ag(I) Acetate]	~50%	about 5.20%	> 150	100	> 150	125	prevalently located in the cytoplasm	> 150	100	> 200	150	> 125	100	formation of a green nuclear fluorescence
